# Results from PMC5789271, “Absorption and Metabolism of Phenolics from Digests of Polyphenol-Rich Potato Extracts Using the Caco-2/HepG2 Co-Culture System” (Foods, 2018).
# Several values for one entry are separate records, joined by “and”; a condition that tells them apart may be missing. Equal entries are not always repeated. Entries after “also recorded” stand apart in the source; their conditions may differ.
# Assays:
# [1] = tested on: human intestinal microbial ecosystem (colonic microbiota); assay: Simulated digestion of PRPE in the dynamic multi-reactor GI model, LC-MS phenolic profile of pooled colonic digesta; type: in vitro ADME; conditions: pooled digesta of three colonic vessels, 24 h; also: key: (+) present; (T) trace amount
# Text: PRPE was subjected to in vitro digestion by the GI model as described previously in detail. Briefly, the model was composed of five double-jacketed vessels representing the stomach, the small intestine, the ascending colon, the transverse colon, and the descending colon. The model was fully computer controlled. The pH was automatically controlled by addition of 0.2 M HCl and 0.5 M NaOH solution upon a change in pH in the vessels to simulate the in vivo conditions in the different segments of the human gastrointestinal tract. The temperature was kept at 37 °C and anaerobic conditions were maintained in the fermentation vessels by flushing nitrogen gas for 20 min into the airspace every day. The experiment was started after a 2-week stabilization period in which fecal slurry, obtained from five healthy volunteers with no history of GI disease or antibiotic use in the previous six months, were inoculated into the last three vessels. After the 2-week stabilization period, 130 g PRPE was dissolved in the GI food mixture, which was composed of the following ingredients: arabinolactan, pectin, xylan, starch, glucose, yeast extracts, peptone, mucin, and cysteine powders—a composition previously developed by Molly et al. (1993). The GI food mixture was stored at 4 °C during the study. Samples were collected from all three colonic vessels before and 24 h after addition of PRPE to the GI digestion model. Each digestion was carried out in triplicate. Samples were centrifuged at 1000× g and stored at −80 °C for later analysis by liquid chromatography–mass spectrometry (LC-MS) and for the cell culture experiments.
# The samples that were collected from the last three colonic vessels of the gut model after 24 h digestion were pooled after each experiment and prepared according to the method described previously. The samples were centrifuged at 36,000× g, 4 °C for 2 h. The supernatant was collected and the pH was neutralized to pH 7 before being filter sterilized with a 25 mm syringe filter (0.2 µm, MCE, Fisher Scientific, Ottawa, ON, Canada) and stored at −80 °C until used for the Caco-2/HepG2 cell experiments. Samples collected before the addition of PRPE were considered as the controls.
# This condition was maintained for 3 min.
# [2] = tested on: Caco-2 cells; assay: Caco-2 cell transport bioassay (Caco-2/HepG2 co-culture, 2 h); type: in vitro ADME, human; parameters: Percentage of Control Value at 0 h, A (2 h) / Percentage of Control Value at 0 h, B (2 h): concentration or dose not given beside the values; conditions: for Percentage of Digesta Value, A (2 h) / Percentage of Digesta Value, B (2 h): PRPE digesta 10% (v/v); for Percentage of Digesta Value, A (2 h) / Percentage of Control Value at 0 h, A (2 h): apical chamber after 2 h; for Percentage of Digesta Value, B (2 h) / Percentage of Control Value at 0 h, B (2 h): basolateral chamber after 2 h; for Percentage of Control Value at 0 h, A (2 h) / Percentage of Control Value at 0 h, B (2 h): control digesta
# [3] = tested on: Caco-2 and HT29-MTX cells; parameters: method as in PMID 18154874; conditions: 1-h co-culture of Caco-2 and HT29-MTX cells; cited from earlier work
# [4] = tested on: HepG2 cells; assay: HepG2 cell metabolism bioassay (basolateral chamber, further 3 h); conditions: for Fold increase of basolateral concentration after HepG2 incubation: 3 h with HepG2 cells, relative to initial basolateral value
# Method: Cells were incubated at 37 °C with 5% CO2 and 90% humidity and were monitored daily.
# During this time, the medium was changed every other day. Before starting the treatments, the integrity of the monolayer was checked by measuring the transepithelial electrical resistance (TEER). […] Caco-2 monolayers having reached a TEER of 250 ohm/cm^2 or greater were used for the transport experiment [29]. […] Medium (500 µL) containing digesta of PRPE was added to the apical side of the wells and incubated for up to 2 h. […] Samples were taken from the receiver well after 2 and 5 h. […] All samples were centrifuged at 2000× g for 15 min and the supernatants were stored at −20 °C for further analysis by LC-MS.
# After thawing, samples were vortexed and filtered using 25 mm syringe filters (0.45 µm, MCE, Fisher Scientific, Ottawa, ON, Canada) and transferred to HPLC vials for LC-MS analysis. […] Phenolic compounds and metabolites were eluted using a gradient of solvent A (10 mM formic acid, pH 3.5) and B (5 mM ammonium formate solution in 100% methanol), starting with 5% B, increasing to 30% B in 5 min, 70% B in 7 min, and 100% B at 9 min. This condition was maintained for 3 min. A solvent flow rate of 1.0 mL/min was used and 20 µL of sample was injected into the LC system. […] The analyses were performed in both positive and negative modes and the data was acquired over a mass range of m/z 100–1000. […] The data were acquired and processed using Agilent Mass Hunter software version B.04.00. […] The relative abundance of the compounds was calculated relative to the quantification of benzoic acid as the reference peak, as benzoic acid was present in all the cellular compartments at the same concentration at all time points.
# [5] = tested on: Caco-2 cell monolayer; parameters: method as in PMID 12784628; conditions: cited from earlier work
# [6] = PRPE digesta, basolateral chamber after 3 h with HepG2 cells alone (t = 5 h), relative to basolateral value at 2 h
# [7] = control digesta, basolateral chamber after 3 h with HepG2 cells (t = 5 h)
# [8] = listed as 3-hydroxyphenylacetic acid
Compound,Presence after human simulated intestinal digestion of PRPE [1],"Percentage of Digesta Value, A (2 h) [2]","Percentage of Digesta Value, B (2 h) [2]","Percentage of Control Value at 0 h, A (2 h) [2]","Percentage of Control Value at 0 h, B (2 h) [2]",Fold increase of basolateral concentration after HepG2 incubation ([4]; PRPE digesta),"Percentage of Basolateral Value, B (5 h) [4, 6]","Percentage of Basolateral Value, B (5 h) [4, 7]",further results
"O=C(O)CCc1ccc(O)c(O)c1 [Dihydrocaffeic acid, 3-(3′,4′-Dihydroxyphenyl)propionic acid]",+,67%,15%,26%,26%,three-fold increase,338%,123%,"Percentage of Digesta Value, B (2 h) ([2]; listed as dihydrocaffeic acid): 10–15% and 10%; Permeability across Caco-2 cells [3]: 0.5%; Percentage of Basolateral Value, B (5 h) ([4]; PRPE digesta, basolateral chamber after 3 h with HepG2 cells alone (t = 5 h), relative to basolateral value at 2 h, listed as dihydrocaffeic acid): 160–370%"
"O=C(O)C=Cc1ccccc1 [Cinnamic acid, 3-Phenylprop-2-enoic acid]",+,,,,,,,,
O=C(O)Cc1cccc(O)c1 [3-Hydroxyphenylacetic acid],+,70%,-,100%,-,,-,-,"Percentage of Digesta Value, A (2 h) [2, 8]: 65–70%; Percentage of Digesta Value, B (2 h) [2, 8]: not detected; also recorded: none of these three compounds were measurable"
"COc1cc(CCC(=O)O)ccc1O [Dihydroferulic acid, 3-(4-Hydroxy-3-methoxyphenyl)propionic acid]",+,78%,10%,,,,78%,,"Percentage of Digesta Value, B (2 h) ([2]; listed as dihydroferulic acid): 10–15% and 15%"
O=C(O)/C=C/c1ccc(O)cc1 [Coumaric acid],+,68%,3%,,,More than a two-fold increase,212%,,"Percentage of Digesta Value, B (2 h) ([2]; listed as coumaric acid): 3–5%"
"COc1cc(C(=O)O)ccc1O [Vanillic acid, 4-Hydroxy-3-methoxybenzoic acid]",+,,,,,,,,
"C[C@@H]1O[C@@H](OC[C@H]2O[C@@H](Oc3c(-c4ccc(O)c(O)c4)oc4cc(O)cc(O)c4c3=O)[C@H](O)[C@@H](O)[C@@H]2O)[C@H](O)[C@H](O)[C@H]1O [Rutin, Quercetin-3-O-rutinoside]",+,,,,,,,,
O=C(O)c1cccc(O)c1 [3-Hydroxybenzoic acid],+,50%,5%,,,,100%,,"Percentage of Digesta Value, B (2 h) ([2]; listed as 3-hydroxybenzoic acid): 3–5%; Percentage of Basolateral Value, B (5 h) ([4]; PRPE digesta, basolateral chamber after 3 h with HepG2 cells alone (t = 5 h), relative to basolateral value at 2 h, listed as 3-hydroxybenzoic acid): unchanged"
O=C(O)CCc1ccccc1 [Phenylpropanoic acid],+,65%,-,100%,-,,-,-,"Percentage of Digesta Value, A (2 h) ([2]; listed as phenylpropanoic acid): 65–70%; Percentage of Digesta Value, B (2 h) ([2]; listed as phenylpropanoic acid): not detected; also recorded: none of these three compounds were measurable"
"O=C(O)CCc1cccc(O)c1 [3-Hydroxyphenylpropionic acid, 3-(3-Hydroxyphenyl)propionic acid]",+,69%,4%,90%,-,2.3 fold,233%,-,"Percentage of Digesta Value, B (2 h) ([2]; listed as 3-hydroxyphenylpropionic acid): 3–5%; Percentage of Basolateral Value, B (5 h) ([4]; PRPE digesta, basolateral chamber after 3 h with HepG2 cells alone (t = 5 h), relative to basolateral value at 2 h, listed as 3-hydroxyphenylpropionic acid): 160–370%"
"O=C(O)c1ccc(O)c(O)c1 [Protocatechuic acid, 3,4-Dihydroxybenzoic acid]",+,,,,,,,,
O=C(O)c1ccccc1 [Benzoic acid],+,+,+,+,+,,+,+,
"COc1cc(/C=C/C(=O)O)ccc1O [Ferulic acid, (E)-3-(4-Hydroxy-3-methoxy-phenyl)prop-2-enoic acid]",+,90%,11%,,,1.6 fold,166%,,"Percentage transported to the basolateral side of the Caco-2 cell monolayer [5]: 3.42%; Percentage of Digesta Value, B (2 h) ([2]; listed as ferulic acid): 10–15%; Percentage of Basolateral Value, B (5 h) ([4]; PRPE digesta, basolateral chamber after 3 h with HepG2 cells alone (t = 5 h), relative to basolateral value at 2 h, listed as ferulic acid): 160–370%"
